In the supplement of paper PMC11208160:

Experiment: recombinant barcode read abundance after kanamycin selection (control-corrected) (log10(CPM+1)); higher = more efficient recombination; sequences stand for … in AGTGCAGAGAAAATCGGCCAGTTTTCTCTGCCTGCAGTCCGCATGCCGT…ATTTATGCAGCGGACTGCCTTTCTCCCAAAGTGATAAACCGGACAGTATCATGGACCGGTTTTCCCGGTAATCCGTATTTGCAAGGTTGGTTTCACT; site = the 11-nt target
In short: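 Targets and IS621 bridge RNA target-binding loops were paired in oligos, each with a promoter, a barcode and the J23119-driven first 104 bridge RNA bases. A vector carrying the remaining 73 bp and a T7-inducible recombinase received these by Gibson cloning, and the pool was co-electroporated into E. coli with a donor plasmid. Duplicate plates contained chloramphenicol/ampicillin LB agar (control) or chloramphenicol/ampicillin/kanamycin with 0.1 mM IPTG. Recombination efficiency comes from averaged, control-corrected counts per million of recombinant-junction barcodes, reported as log10(CPM+1).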

Row | Sequence | recombinant barcode read abundance (log10)
1 | GCGGGACCTTGGGTTCTAACCTGTTGCCTGA [GCGGGACCTAG_LTGcore_CT_RTGcore_TC] (site GCGGGACCTAG) (LTG core: CT, RTG core: TC) | 0.0737
2 | GCGGGACCTTGGGTTCTAACCTGTTGCCTTG [GCGGGACCTAG_LTGcore_CT_RTGcore_CA] (site GCGGGACCTAG) (LTG core: CT, RTG core: CA) | 1.08
3 | GCGGGACGATGGGTTCTAACCTGTTGCCTAG [GCGGGACCTAG_LTGcore_GA_RTGcore_CT] (site GCGGGACCTAG) (LTG core: GA, RTG core: CT) | 0.171
4 | GCGGGACTATGGGTTCTAACCTGTTGCCTTA [GCGGGACCTAG_LTGcore_TA_RTGcore_TA] (site GCGGGACCTAG) (LTG core: TA, RTG core: TA) | 0.214
5 | GCGGGACTGTGGGTTCTAACCTGTTGCCTAG [GCGGGACCTAG_LTGcore_TG_RTGcore_CT] (site GCGGGACCTAG) (LTG core: TG, RTG core: CT) | 0.316
6 | GCGGGACTTTGGGTTCTAACCTGTTGCCTAA [GCGGGACCTAG_LTGcore_TT_RTGcore_TT] (site GCGGGACCTAG) (LTG core: TT, RTG core: TT) | 0.186
7 | GGACACCAATGGGTTCTAACCTGTTGCCTAG [GGACACCCTAG_LTGcore_AA_RTGcore_CT] (site GGACACCCTAG) (LTG core: AA, RTG core: CT) | 0.294
8 | GGACACCACTGGGTTCTAACCTGTTGCCTGT [GGACACCCTAG_LTGcore_AC_RTGcore_AC] (site GGACACCCTAG) (LTG core: AC, RTG core: AC) | 0.54
9 | GGACACCCATGGGTTCTAACCTGTTGCCTAG [GGACACCCTAG_LTGcore_CA_RTGcore_CT] (site GGACACCCTAG) (LTG core: CA, RTG core: CT) | 0.765
10 | GGACACCCATGGGTTCTAACCTGTTGCCTTG [GGACACCCTAG_LTGcore_CA_RTGcore_CA] (site GGACACCCTAG) (LTG core: CA, RTG core: CA) | 0.0906
11 | GGACACCCCTGGGTTCTAACCTGTTGCCTAG [GGACACCCTAG_LTGcore_CC_RTGcore_CT] (site GGACACCCTAG) (LTG core: CC, RTG core: CT) | 1.3
12 | GGACACCCGTGGGTTCTAACCTGTTGCCTCG [GGACACCCTAG_LTGcore_CG_RTGcore_CG] (site GGACACCCTAG) (LTG core: CG, RTG core: CG) | 0.314
13 | GGACACCCTTGGGTTCTAACCTGTTGCCTAT [GGACACCCTAG_LTGcore_CT_RTGcore_AT] (site GGACACCCTAG) (LTG core: CT, RTG core: AT) | 1.28
14 | GGACACCCTTGGGTTCTAACCTGTTGCCTCG [GGACACCCTAG_LTGcore_CT_RTGcore_CG] (site GGACACCCTAG) (LTG core: CT, RTG core: CG) | 0.306
15 | GGACACCCTTGGGTTCTAACCTGTTGCCTGA [GGACACCCTAG_LTGcore_CT_RTGcore_TC] (site GGACACCCTAG) (LTG core: CT, RTG core: TC) | 1.89
16 | GGACACCCTTGGGTTCTAACCTGTTGCCTGT [GGACACCCTAG_LTGcore_CT_RTGcore_AC] (site GGACACCCTAG) (LTG core: CT, RTG core: AC) | 0.442
17 | GGACACCGATGGGTTCTAACCTGTTGCCTAG [GGACACCCTAG_LTGcore_GA_RTGcore_CT] (site GGACACCCTAG) (LTG core: GA, RTG core: CT) | 0.0895
18 | GGACACCGGTGGGTTCTAACCTGTTGCCTAG [GGACACCCTAG_LTGcore_GG_RTGcore_CT] (site GGACACCCTAG) (LTG core: GG, RTG core: CT) | 0.255
19 | GGCTCCCAATGGGTTCTAACCTGTTGCGGAG [GGCTCCCCTCC_LTGcore_AA_RTGcore_CT] (site GGCTCCCCTCC) (LTG core: AA, RTG core: CT) | 0
20 | GGCTCCCACTGGGTTCTAACCTGTTGCGGAG [GGCTCCCCTCC_LTGcore_AC_RTGcore_CT] (site GGCTCCCCTCC) (LTG core: AC, RTG core: CT) | 0.149
21 | GGCTCCCACTGGGTTCTAACCTGTTGCGGGT [GGCTCCCCTCC_LTGcore_AC_RTGcore_AC] (site GGCTCCCCTCC) (LTG core: AC, RTG core: AC) | 0.143
22 | GGCTCCCAGTGGGTTCTAACCTGTTGCGGAG [GGCTCCCCTCC_LTGcore_AG_RTGcore_CT] (site GGCTCCCCTCC) (LTG core: AG, RTG core: CT) | 0.156
23 | GGCTCCCCTTGGGTTCTAACCTGTTGCGGAA [GGCTCCCCTCC_LTGcore_CT_RTGcore_TT] (site GGCTCCCCTCC) (LTG core: CT, RTG core: TT) | 0.164

Row | Sequence | recombinant barcode read abundance (log10)
24 | GGCTCCCCTTGGGTTCTAACCTGTTGCGGCT [GGCTCCCCTCC_LTGcore_CT_RTGcore_AG] (site GGCTCCCCTCC) (LTG core: CT, RTG core: AG) | 0.0367
25 | GGCTCCCGATGGGTTCTAACCTGTTGCGGAG [GGCTCCCCTCC_LTGcore_GA_RTGcore_CT] (site GGCTCCCCTCC) (LTG core: GA, RTG core: CT) | 0.104
26 | GGCTCCCGATGGGTTCTAACCTGTTGCGGTC [GGCTCCCCTCC_LTGcore_GA_RTGcore_GA] (site GGCTCCCCTCC) (LTG core: GA, RTG core: GA) | 0.109
27 | GGCTCCCTATGGGTTCTAACCTGTTGCGGTA [GGCTCCCCTCC_LTGcore_TA_RTGcore_TA] (site GGCTCCCCTCC) (LTG core: TA, RTG core: TA) | 0.201
28 | GGCTCCCTCTGGGTTCTAACCTGTTGCGGAG [GGCTCCCCTCC_LTGcore_TC_RTGcore_CT] (site GGCTCCCCTCC) (LTG core: TC, RTG core: CT) | 0.172
29 | GGGAGCCATTGGGTTCTAACCTGTTGCTGAG [GGGAGCCCTCA_LTGcore_AT_RTGcore_CT] (site GGGAGCCCTCA) (LTG core: AT, RTG core: CT) | 0.526
30 | GGGAGCCCGTGGGTTCTAACCTGTTGCTGAG [GGGAGCCCTCA_LTGcore_CG_RTGcore_CT] (site GGGAGCCCTCA) (LTG core: CG, RTG core: CT) | 0.27
31 | GGGAGCCCTTGGGTTCTAACCTGTTGCTGAG [GGGAGCCCTCA_LTGcore_CT_RTGcore_CT] (site GGGAGCCCTCA) (LTG core: CT, RTG core: CT) | 1.87
32 | GGGAGCCCTTGGGTTCTAACCTGTTGCTGCT [GGGAGCCCTCA_LTGcore_CT_RTGcore_AG] (site GGGAGCCCTCA) (LTG core: CT, RTG core: AG) | 0.652
33 | GGGAGCCCTTGGGTTCTAACCTGTTGCTGGC [GGGAGCCCTCA_LTGcore_CT_RTGcore_GC] (site GGGAGCCCTCA) (LTG core: CT, RTG core: GC) | 0.0756
34 | GGGAGCCCTTGGGTTCTAACCTGTTGCTGGG [GGGAGCCCTCA_LTGcore_CT_RTGcore_CC] (site GGGAGCCCTCA) (LTG core: CT, RTG core: CC) | 0.111
35 | GGGAGCCCTTGGGTTCTAACCTGTTGCTGGT [GGGAGCCCTCA_LTGcore_CT_RTGcore_AC] (site GGGAGCCCTCA) (LTG core: CT, RTG core: AC) | 0.208
36 | GGGAGCCGATGGGTTCTAACCTGTTGCTGTC [GGGAGCCCTCA_LTGcore_GA_RTGcore_GA] (site GGGAGCCCTCA) (LTG core: GA, RTG core: GA) | 0.0745
37 | GGGAGCCTGTGGGTTCTAACCTGTTGCTGAG [GGGAGCCCTCA_LTGcore_TG_RTGcore_CT] (site GGGAGCCCTCA) (LTG core: TG, RTG core: CT) | 0.259
38 | GGGAGCCTGTGGGTTCTAACCTGTTGCTGCA [GGGAGCCCTCA_LTGcore_TG_RTGcore_TG] (site GGGAGCCCTCA) (LTG core: TG, RTG core: TG) | 0.285
39 | GGGCGGAACTGGGTTCTAACCTGTTGCGGGT [GGGCGGACTCC_LTGcore_AC_RTGcore_AC] (site GGGCGGACTCC) (LTG core: AC, RTG core: AC) | 0.3
40 | GGGCGGAATTGGGTTCTAACCTGTTGCGGAG [GGGCGGACTCC_LTGcore_AT_RTGcore_CT] (site GGGCGGACTCC) (LTG core: AT, RTG core: CT) | 0.637
41 | GGGCGGACCTGGGTTCTAACCTGTTGCGGAG [GGGCGGACTCC_LTGcore_CC_RTGcore_CT] (site GGGCGGACTCC) (LTG core: CC, RTG core: CT) | 1.4
42 | GGGCGGACTTGGGTTCTAACCTGTTGCGGAC [GGGCGGACTCC_LTGcore_CT_RTGcore_GT] (site GGGCGGACTCC) (LTG core: CT, RTG core: GT) | 0.135
43 | GGGCGGACTTGGGTTCTAACCTGTTGCGGGA [GGGCGGACTCC_LTGcore_CT_RTGcore_TC] (site GGGCGGACTCC) (LTG core: CT, RTG core: TC) | 1.29
44 | GGGCGGACTTGGGTTCTAACCTGTTGCGGTC [GGGCGGACTCC_LTGcore_CT_RTGcore_GA] (site GGGCGGACTCC) (LTG core: CT, RTG core: GA) | 0.104
45 | GGGCGTGCATGGGTTCTAACCTGTTGCCTAG [GGGCGTGCTAG_LTGcore_CA_RTGcore_CT] (site GGGCGTGCTAG) (LTG core: CA, RTG core: CT) | 0.233
